Several values for one entry are separate records, joined by “and”; a condition that tells them apart may be missing. Identical values can stand only once.
Assay: Metabolic chamber assay
Assay type: in vivo, mouse
Design: AUC of RER / AUC of RER, group mean: unit not given beside the values
Conditions: for RER of DIO: DIO ip APC, single animals
Procedure: Metabolic parameters of mice were determined using Columbus Instruments Comprehensive Lab Animal Monitoring System (CLAMS). The area unit under the curve (AUC) of respiratory exchange ratio (RER) and ambulatory activity (X-TOT) were calculated using Graphpad prism 8.0.

SMILES: CC(C)=CCc1cc(C=CC(=O)O)cc(CC=C(C)C)c1O [APC, 3,5-diprenyl-4-hydroxycinnamic acid]
- RER of DIO (interval 29, hour 10.6): 0.841 and 0.824 and 0.818 and 0.858
- RER of DIO (interval 30, hour 11.0): 0.821 and 0.847 and 0.832 (2×)
- RER of DIO (interval 31, hour 11.4): 0.844 and 0.835 and 0.841 and 0.829
- RER of DIO (interval 32, hour 11.7): 0.827 and 0.833 and 0.828 and 0.825
- RER of DIO (interval 33, hour 12.1): 0.841 and 0.831 and 0.816 (2×)
- RER of DIO (interval 34, hour 12.5): 0.864 and 0.863 and 0.842 and 0.837
- RER of DIO (interval 35, hour 12.8): 0.866 and 0.842 and 0.843 and 0.836
- RER of DIO (interval 36, hour 13.2): 0.891 and 0.836 and 0.797 and 0.825
- RER of DIO (interval 37, hour 13.6): 0.88 and 0.869 and 0.798 and 0.846
- RER of DIO (interval 38, hour 13.9): 0.846 and 0.848 and 0.837 and 0.814
- RER of DIO (interval 39, hour 14.3): 0.854 and 0.82 and 0.839 and 0.825
- RER of DIO (interval 40, hour 14.7): 0.86 and 0.846 and 0.828 and 0.83
- RER of DIO (interval 41, hour 15.0): 0.866 and 0.871 and 0.84 and 0.828
- RER of DIO (interval 42, hour 15.4): 0.814 and 0.86 and 0.83 and 0.806
- RER of DIO (interval 43, hour 15.8): 0.858 and 0.883 and 0.843 and 0.83
- RER of DIO (interval 44, hour 16.1): 0.887 and 0.859 and 0.818 and 0.83
- RER of DIO (interval 45, hour 16.5): 0.883 and 0.858 and 0.81 and 0.824
- RER of DIO (interval 46, hour 16.9): 0.827 and 0.816 and 0.835 and 0.797
- RER of DIO (interval 47, hour 17.2): 0.845 and 0.787 and 0.84 and 0.811
- RER of DIO (interval 48, hour 17.6): 0.803 and 0.8 and 0.812 and 0.779
- RER of DIO (interval 49, hour 18.0): 0.826 and 0.77 and 0.786 and 0.808
- RER of DIO (interval 50, hour 18.3): 0.8 and 0.765 and 0.776 and 0.827
- RER of DIO (interval 51, hour 18.7): 0.816 and 0.804 and 0.782 and 0.849
- RER of DIO (interval 52, hour 19.1): 0.748 and 0.846 and 0.834 and 0.782
- RER of DIO (interval 53, hour 19.4): 0.829 and 0.795 and 0.809 and 0.784
- RER of DIO (interval 54, hour 19.8): 0.795 and 0.796 and 0.8 and 0.821
- RER of DIO (interval 55, hour 20.2): 0.793 and 0.823 and 0.818 and 0.827
- RER of DIO (interval 56, hour 20.5): 0.819 and 0.827 and 0.837 and 0.791
- RER of DIO (interval 57, hour 20.9): 0.849 and 0.806 and 0.795 and 0.788
- RER of DIO (interval 58, hour 21.3): 0.795 and 0.771 and 0.783 and 0.79
- RER of DIO (interval 59, hour 21.6): 0.833 and 0.785 and 0.748 and 0.783
- RER of DIO (interval 60, hour 22.0): 0.787 and 0.839 and 0.786 and 0.789
- RER of DIO (interval 61, hour 22.4): 0.78 and 0.845 and 0.792 and 0.77
- RER of DIO (interval 62, hour 22.7): 0.799 and 0.852 and 0.77 and 0.81
- RER of DIO (interval 63, hour 23.1): 0.815 and 0.784 and 0.793 and 0.796
- RER of DIO (interval 64, hour 23.5): 0.868 and 0.804 and 0.79 and 0.793
- RER of DIO (interval 65, hour 23.8): 0.88 and 0.841 and 0.837 and 0.825
- RER of DIO (interval 66, hour 24.2): 0.846 and 0.879 and 0.838 and 0.813
- RER of DIO (interval 67, hour 24.6): 0.838 and 0.875 and 0.807 and 0.8
- RER of DIO (interval 68, hour 24.9): 0.86 and 0.913 and 0.847 and 0.857
- RER of DIO (interval 69, hour 25.3): 0.873 and 0.865 and 0.838 and 0.896
- RER of DIO (interval 70, hour 25.7): 0.843 and 0.89 and 0.8 and 0.847
- AUC of RER (WT mice, individual mice): 64.64 and 64.37 and 63.27 and 66.85
- Twenty-four hours respiratory exchange ratio (RER) (WT mice, individual mice, reading 6): 0.933 and 0.928 and 0.895 and 0.97
- Twenty-four hours respiratory exchange ratio (RER) (WT mice, individual mice, reading 7): 0.939 and 0.96 and 0.973 and 0.974
- Twenty-four hours respiratory exchange ratio (RER) (WT mice, individual mice, reading 8): 0.918 and 0.961 and 0.922 and 0.982
- Twenty-four hours respiratory exchange ratio (RER) (WT mice, individual mice, reading 9): 0.913 and 0.964 and 0.926 and 0.986
- Twenty-four hours respiratory exchange ratio (RER) (WT mice, individual mice, reading 10): 0.969 and 0.971 and 0.952 and 0.978
- Twenty-four hours respiratory exchange ratio (RER) (WT mice, individual mice, reading 11): 0.955 and 0.975 (2×) and 0.936
- Twenty-four hours respiratory exchange ratio (RER) (WT mice, individual mice, reading 12): 0.989 and 0.966 and 0.963 and 1.016
- Twenty-four hours respiratory exchange ratio (RER) (WT mice, individual mice, reading 13): 0.967 and 0.988 and 0.98 and 0.99
- Twenty-four hours respiratory exchange ratio (RER) (WT mice, individual mice, reading 14): 0.975 and 0.999 and 0.954 and 1.005
- Twenty-four hours respiratory exchange ratio (RER) (WT mice, individual mice, reading 15): 0.988 and 0.994 and 0.959 and 0.969
- Twenty-four hours respiratory exchange ratio (RER) (WT mice, individual mice, reading 16): 1.003 and 0.991 and 0.965 and 0.97
- Twenty-four hours respiratory exchange ratio (RER) (WT mice, individual mice, reading 17): 1.006 and 0.99 and 0.951 and 0.989
- Twenty-four hours respiratory exchange ratio (RER) (WT mice, individual mice, reading 18): 0.963 and 0.961 and 0.974 and 1.025
- Twenty-four hours respiratory exchange ratio (RER) (WT mice, individual mice, reading 19): 0.958 and 0.976 and 0.946 and 1.032
- Twenty-four hours respiratory exchange ratio (RER) (WT mice, individual mice, reading 20): 0.939 and 0.961 and 1.004 and 1.024
- Twenty-four hours respiratory exchange ratio (RER) (WT mice, individual mice, reading 21): 0.991 and 1.018 and 0.961 and 0.993
- Twenty-four hours respiratory exchange ratio (RER) (WT mice, individual mice, reading 22): 0.946 and 0.962 and 0.958 and 0.989
- Twenty-four hours respiratory exchange ratio (RER) (WT mice, individual mice, reading 23): 0.971 and 1.012 and 0.999 and 0.985
- Twenty-four hours respiratory exchange ratio (RER) (WT mice, individual mice, reading 24): 1.006 and 0.997 and 0.993 and 1.002
- Twenty-four hours respiratory exchange ratio (RER) (WT mice, individual mice, reading 25): 0.971 and 0.965 and 0.961 and 0.984
- Twenty-four hours respiratory exchange ratio (RER) (WT mice, individual mice, reading 26): 0.941 and 0.984 and 1.005 and 0.996
- Twenty-four hours respiratory exchange ratio (RER) (WT mice, individual mice, reading 27): 0.981 and 0.968 and 0.989 and 0.998
- Twenty-four hours respiratory exchange ratio (RER) (WT mice, individual mice, reading 28): 0.956 and 0.954 and 0.968 and 0.984
- Twenty-four hours respiratory exchange ratio (RER) (WT mice, individual mice, reading 29): 0.975 and 0.977 and 0.994 and 1.026
- Twenty-four hours respiratory exchange ratio (RER) (WT mice, individual mice, reading 30): 0.994 and 0.963 and 1.014 and 1.033
- AUC of RER, group mean (WT mice, n=4): 64.78
- respiratory exchange ratio (RER) and energy expenditure (db/db mice): significantly elevated
